The compounds below were run against SMYD3 (Homo sapiens (Human), UniProt Q9H7B4) (assay: SMYD3 biochemical assay (SMYD3 enzyme assay on MEKK2 protein substrate, 3H-SAM scintillation proximity assay)). Settings: read-out: SMYD3 Biochem IC50 (μM)*.
Chain of SMYD3 (Q9H7B4 whole entry): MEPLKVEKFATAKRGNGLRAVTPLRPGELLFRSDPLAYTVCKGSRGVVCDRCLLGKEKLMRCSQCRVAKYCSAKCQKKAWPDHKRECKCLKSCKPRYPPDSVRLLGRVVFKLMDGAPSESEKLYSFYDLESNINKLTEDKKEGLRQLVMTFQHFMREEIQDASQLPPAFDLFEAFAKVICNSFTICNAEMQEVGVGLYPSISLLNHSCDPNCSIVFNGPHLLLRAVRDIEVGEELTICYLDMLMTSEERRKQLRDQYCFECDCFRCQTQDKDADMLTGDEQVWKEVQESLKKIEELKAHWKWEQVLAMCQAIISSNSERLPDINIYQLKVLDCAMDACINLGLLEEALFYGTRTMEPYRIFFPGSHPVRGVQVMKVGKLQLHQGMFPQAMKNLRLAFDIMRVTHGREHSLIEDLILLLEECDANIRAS
Excerpt: S-adenosylmethionine (SAM), S-adenosylhomocysteine (SAH), Tris, Tween20, dimethylsulfoxide (DMSO), bovine skin gelatin (BSG), and Tris(2-carboxyethyl)phosphine hydrochloride solution (TCEP) were purchased from Sigma-Aldrich at the highest level of purity possible. ^3H-SAM was purchase from American Radiolabeled Chemicals with a specific activity of 80 Ci/mmol. 384-well opaque white OptiPlates and SPA beads (Perkin Elmer, catalog # RPNQ0013) were purchased from PerkinElmer.
N-terminally GST-tagged MEKK2 (MAP3K2) protein corresponding to reference sequence AAF63496.3 was purchased from Life Technologies (catalog # PV4010). This protein was expressed in High Five insect cells and purified to >85% purity. Protein identity was confirmed by MS/MS analysis after proteolytic digestion. The protein sequence used was:
Full-length human SMYD3 isoform 1 (BAB86333) was inserted into a modified pET21b plasmid containing a His6 tag and TEV and SUMO cleavage sites.
E. coli (BL21 codonplus RIL strain, Stratagene) were transformed with plasmid pEPZ553 by mixing competent cells and plasmid DNA and incubating on ice for 30 minutes followed by heat shock at 42° C. for 1 minute and cooling on ice for 2 minutes. Transformed cells were grown and selected on LB agar with 100 μg/mL ampicillin and 17 μg/mL chloramphenicol at 37° C. overnight. A single clone was used to inoculate 200 mL of LB medium with 100 μg/mL ampicillin and 17 μg/mL chloramphenicol and incubated at 37° C. on an orbital shaker at 180 rpm. Once in log growth, the culture was diluted 1:100 into 2 L of LB medium and grown until OD600 was about 0.3 after which the culture was incubated at 15° C. and 160 rpm. Once OD600 reached about 0.4, IPTG was added to a final concentration of 0.1 mM and the cells were grown overnight at 15° C. and 160 rpm. Cells were harvested by centrifugation at 8000 rpm, for 4 minutes at 4° C. and stored at −80° C. for purification.
The column was washed with Buffer B (Buffer A plus 20 mM imidazole) and His-tagged SMYD3 was eluted with Buffer C (Buffer A plus 300 mM imidazole). The His tag, TEV and SUMO cleavage sites were removed generating native SMYD3 by addition of ULP1 protein at a ratio of 1:200 (ULP1:SMYD3). Imidazole was removed by dialysis overnight in Buffer A. The dialyzed solution was applied to a second Nickel column and the native SMYD3 protein was collected from the column flow-through. The flow-through was dialyzed in Buffer D (25 mM Tris, 5% glycerol, 5 mM β-mercaptoethanol, 50 mM NaCl, pH7.8) and ULP1 was removed using a Q sepharose fast flow column.
General Procedure for SMYD3 Enzyme Assays on MEKK2 Protein Substrate
The assays were all performed in a buffer consisting of 25 mM Tris-Cl pH 8.0, 1 mM TCEP, 0.005% BSG, and 0.005% Tween 20, prepared on the day of use. […] DMSO (1 ul) was added to Columns 11, 12, 23, 24, rows A-H for the maximum signal control and 1 ul of SAH, a known product and inhibitor of SMYD3, was added to columns 11, 12, 23, 24, rows I-P for the minimum signal control. A cocktail (40 ul) containing the SMYD3 enzyme was added by Multidrop Combi (Thermo-Fisher). The compounds were allowed to incubate with SMYD3 for 30 min at room temperature, then a cocktail (10 ul) containing SAM and MEKK2 was added to initiate the reaction (final volume=51 ul). […] The assays were stopped by the addition of non-radiolabeled SAM (10 ul) to a final concentration of 100 uM, which dilutes the ^3H-SAM to a level where its incorporation into MEKK2 is no longer detectable. Radiolabeled MEKK2 was detected using a scintillation proximity assay (SPA). 10 uL of a 10 mg/mL solution of SPA beads in 0.5 M citric acid was added and the plates centrifuged at 600 rpm for 1 min to precipitate the radiolabeled MEKK2 onto the SPA beads.
Work on CC(=O)Nc1ccc(S(=O)(=O)N2CCC(NC(=O)c3ccncc3)CC2)cc1 [compound 4, N-(1-((4-acetamidophenyl)sulfonyl)piperidin-4-yl)isonicotinamide] yielded an IC50 greater than 100 µM. CC(=O)Nc1ccc(S(=O)(=O)N2CCC(NC(=O)c3cnccn3)CC2)cc1 [compound 5, N-(1-((4-acetamidophenyl)sulfonyl)piperidin-4-yl)pyrazine-2-carboxamide] gave an IC50 greater than 100 µM. Work on CC(=O)Nc1ccc(S(=O)(=O)N2CCC(NC(=O)c3cc[nH]n3)CC2)cc1 [compound 6, N-(1-((4-acetamidophenyl)sulfonyl)piperidin-4-yl)-1H-pyrazole-3-carboxamide] yielded an IC50 greater than 100 µM. With CC(=O)Nc1ccc(S(=O)(=O)N2CCC(NC(=O)c3ccnn3C)CC2)cc1 [compound 7, N-(1-((4-acetamidophenyl)sulfonyl)piperidin-4-yl)-1-methyl-1H-pyrazole-5-carboxamide] the IC50 was greater than 100 µM. Work on CC(=O)Nc1ccc(S(=O)(=O)N2CCC(NC(=O)c3cnn(C)c3)CC2)cc1 [compound 8, N-(1-((4-acetamidophenyl)sulfonyl)piperidin-4-yl)-1-methyl-1H-pyrazole-4-carboxamide] yielded an IC50 greater than 100 µM. For CC(=O)Nc1ccc(S(=O)(=O)N2CCC(NC(=O)c3cn(C)cn3)CC2)cc1 [compound 9, N-(1-((4-acetamidophenyl)sulfonyl)piperidin-4-yl)-1-methyl-1H-imidazole-4-carboxamide], the IC50 was 60.5 µM. Compound CC(=O)Nc1ccc(S(=O)(=O)N2CCC(NC(=O)c3cn(C4CC4)nn3)CC2)cc1 [compound 10, N-(1-((4-acetamidophenyl)sulfonyl)piperidin-4-yl)-1-cyclopropyl-1H-1,2,3-triazole-4-carboxamide] has an IC50 of 17 µM. N[C@H]1CC[C@H](NC(=O)c2cn(C3CC3)nn2)CC1 [compound 11, N-((1r,4r)-4-aminocyclohexyl)-1-cyclopropyl-1H-1,2,3-triazole-4-carboxamide] gave an IC50 of 15.4 µM. In the case of CC(=O)Nc1ccc(S(=O)(=O)N2CCC(NC(=O)C3CCN(CC4CC4)CC3)CC2)cc1 [compound 12, N-(1-((4-acetamidophenyl)sulfonyl)piperidin-4-yl)-1-(cyclopropylmethyl)piperidine-4-carboxamide], the IC50 is reported as 45.9 µM. For CCn1ccc(C(=O)N[C@H]2CC[C@H](N)CC2)n1 [compound 13, N-((1r,4r)-4-aminocyclohexyl)-1-ethyl-1H-pyrazole-3-carboxamide], the IC50 was 112 µM. Work on CCc1cc(C(=O)N[C@H]2CC[C@H](N)CC2)on1 [compound 14, N-((1r,4r)-4-aminocyclohexyl)-3-ethylisoxazole-5-carboxamide] yielded an IC50 of 104 µM. Work on CCn1cnc(C(=O)N[C@H]2CC[C@H](N)CC2)c1 [compound 15, N-((1r,4r)-4-aminocyclohexyl)-1-ethyl-1H-imidazole-4-carboxamide] yielded an IC50 of 56.6 µM. For CCc1nc(C(=O)N[C@H]2CC[C@H](N)CC2)co1 [compound 16, N-((1r,4r)-4-aminocyclohexyl)-2-ethyloxazole-4-carboxamide], the IC50 was 128 µM. With CCc1cc(C(=O)N[C@H]2CC[C@H](N)CC2)ns1 [compound 17, N-((1r,4r)-4-aminocyclohexyl)-5-ethylisothiazole-3-carboxamide] the IC50 was 13.5 µM. Work on CCc1ccc(C(=O)N[C@H]2CC[C@H](N)CC2)cc1 [compound 18, N-((1r,4r)-4-aminocyclohexyl)-4-ethylbenzamide] yielded an IC50 of 125 µM. N[C@H]1CC[C@H](NC(=O)c2ccc3c(c2)OCC(=O)N3)CC1 [compound 19, N-((1r,4r)-4-aminocyclohexyl)-3-oxo-3,4-dihydro-2H-benzo[b][1,4]oxazine-7-carboxamide] gave an IC50 of 102 µM. In the case of N[C@H]1CC[C@H](NC(=O)c2ccc3c(c2)NC(=O)CO3)CC1 [compound 20, N-((1r,4r)-4-aminocyclohexyl)-3-oxo-3,4-dihydro-2H-benzo[b][1,4]oxazine-6-carboxamide], the IC50 is reported as 16 µM. Compound CCc1cccc(C(=O)N[C@H]2CC[C@H](N)CC2)c1 [compound 21, N-((1r,4r)-4-aminocyclohexyl)-3-ethylbenzamide] has an IC50 of 57.5 µM. CCc1cncc(C(=O)N[C@H]2CC[C@H](N)CC2)c1 [compound 22, N-((1r,4r)-4-aminocyclohexyl)-5-ethylnicotinamide] was tested, and the IC50 was 31.3 µM. For CC(=O)c1cccc(C(=O)N[C@H]2CC[C@H](N)CC2)c1 [compound 23, 3-acetyl-N-((1r,4r)-4-aminocyclohexyl)benzamide], the IC50 was 91.5 µM. Compound CC(=O)Nc1cccc(C(=O)N[C@H]2CC[C@H](N)CC2)c1 [compound 24, 3-acetamido-N-((1r,4r)-4-aminocyclohexyl)benzamide] has an IC50 of 80.3 µM. CCC(=O)Nc1cccc(C(=O)N[C@H]2CC[C@H](N)CC2)c1 [compound 25, N-((1r,4r)-4-aminocyclohexyl)-3-propionamidobenzamide] gave an IC50 of 84.3 µM. Work on N[C@H]1CC[C@H](NC(=O)c2cccc(CO)c2)CC1 [compound 26, N-((1r,4r)-4-aminocyclohexyl)-3-(hydroxymethyl)benzamide] yielded an IC50 of 86 µM. CCn1nc(C)cc1C(=O)N[C@H]1CC[C@H](N)CC1 [compound 27, N-((1r,4r)-4-aminocyclohexyl)-1-ethyl-3-methyl-1H-pyrazole-5-carboxamide] was tested, and the IC50 was 102 µM. Cc1cc(C(=O)N[C@H]2CC[C@H](N)CC2)n(-c2ccccc2)n1 [compound 28, N-((1r,4r)-4-aminocyclohexyl)-3-methyl-1-phenyl-1H-pyrazole-5-carboxamide] showed an IC50 of 111 µM. For CCn1nc(C)cc1C(=O)NC(c1ccccc1)C1CCNCC1 (stereo not shown) [compound 30, 1-ethyl-3-methyl-N-(phenyl(piperidin-4-yl)methyl)-1H-pyrazole-5-carboxamide], the IC50 was 69.2 µM. Cc1cc(C(=O)NC(c2ccccc2)C2CCNCC2)n(-c2ccccc2)n1 (stereo not shown) [compound 31, 3-methyl-1-phenyl-N-(phenyl(piperidin-4-yl)methyl)-1H-pyrazole-5-carboxamide] showed an IC50 of 56.7 µM. Compound Cc1cc(C(=O)NC(c2ccccc2)C2CCNCC2)n(Cc2ccccc2)n1 (stereo not shown) [compound 32, 1-benzyl-3-methyl-N-(phenyl(piperidin-4-yl)methyl)-1H-pyrazole-5-carboxamide] has an IC50 of 91.3 µM. In the case of CCc1cc(C(=O)N[C@H]2CC[C@H](N)CC2)n(C)n1 [compound 37, N-((1r,4r)-4-aminocyclohexyl)-3-ethyl-1-methyl-1H-pyrazole-5-carboxamide], the IC50 is reported as 59.9 µM. For CCc1ccnc(C(=O)N[C@H]2CC[C@H](N)CC2)c1 [compound 38, N-((1r,4r)-4-aminocyclohexyl)-4-ethylpicolinamide], the IC50 was 20.5 µM. O=C1CNc2cc(C(=O)NC3CCNCC3)ccc2N1 [compound 39, 2-oxo-N-(piperidin-4-yl)-1,2,3,4-tetrahydroquinoxaline-6-carboxamide] gave an IC50 of 23.9 µM. Compound N[C@H]1CC[C@H](NC(=O)c2ccc3c(c2)CC(=O)N3)CC1 [compound 40, N-((1r,4r)-4-aminocyclohexyl)-2-oxoindoline-5-carboxamide] has an IC50 of 2.84 µM. N[C@H]1CC[C@H](NC(=O)c2ccc3c(c2)CC(=O)N3)CC1 [compound 42, N-((1r,4r)-4-aminocyclohexyl)-2-oxoindoline-5-carboxamide] showed an IC50 of 3.31 µM. Compound N[C@H]1CC[C@H](NC(=O)c2ccc3nc(O)cnc3c2)CC1 [compound 43, N-((1r,4r)-4-aminocyclohexyl)-2-hydroxyquinoxaline-6-carboxamide] has an IC50 of 60.4 µM.
